Results from patent publication US11299496B2, “Ligands for alpha-7 nicotinic acetylcholine receptors and methods of treating neurological and inflammatory conditions” (Northeastern University, priority 2014, dated 2022).

What was measured:
alpha-7 nAChRs = alpha-7 nAChRs (Homo sapiens, UniProt P36544); conditions: cited from earlier work
human alpha-7 nAChR [1] = biological target: T1, human alpha-7 nAChR (Homo sapiens, UniProt P36544); assay: Two-electrode voltage clamp of alpha-7 nAChR expressed in Xenopus oocytes (net charge); format: cell-based; conditions: for Charge Alone: compound alone acting as an allosteric agonist; for Charge Alone / Charge +C: area under the curve of current vs. time; for Charge +C: compound together with choline or ACh, includes PAM and ago-PAM activity
T1 construct: expressed in transfected cells; host or cells: Xenopus laevis oocytes (cRNA injection)
T1 sequence (P36544 23-502): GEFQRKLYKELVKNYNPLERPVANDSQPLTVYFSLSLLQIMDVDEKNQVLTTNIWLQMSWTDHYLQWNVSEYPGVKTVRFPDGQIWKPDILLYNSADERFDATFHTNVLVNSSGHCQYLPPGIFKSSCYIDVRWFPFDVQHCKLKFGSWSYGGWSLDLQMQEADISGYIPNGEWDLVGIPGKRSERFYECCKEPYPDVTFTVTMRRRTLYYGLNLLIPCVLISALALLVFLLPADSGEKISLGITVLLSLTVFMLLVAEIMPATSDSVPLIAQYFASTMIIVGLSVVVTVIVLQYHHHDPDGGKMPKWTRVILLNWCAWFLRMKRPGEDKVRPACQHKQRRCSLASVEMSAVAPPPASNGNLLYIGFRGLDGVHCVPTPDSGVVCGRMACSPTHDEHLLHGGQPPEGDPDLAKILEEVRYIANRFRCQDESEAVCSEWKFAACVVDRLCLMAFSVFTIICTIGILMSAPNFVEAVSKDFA
Method in brief: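 Human α7 nAChR co-expressed with RIC-3 in Xenopus oocytes; two-electrode clamp at −60 mV, 12 s applications in Ringer's pH 7.3. Net charge integrated over 120 s from application, normalized to prior ACh controls; measured for compound alone and with choline or ACh; n≥4 oocytes.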

human alpha-7 nAChR [2] = biological target: T1, human alpha-7 nAChR; assay: Electrophysiological evaluation of PAMs and ago-PAMs in Xenopus oocytes (direct activation, direct and primed potentiation); format: cell-based; conditions: for direct activation when applied alone / primed potentiation of subsequent responses to ACh applied alone: FIGS. 2A-2F; for peak efficacy in the presence of ACh: GAT154 vs GAT155
Excerpt: Electrophysiological evaluation in Xenopus oocytes was used to determine the potency and efficacy with which PAMs and ago-PAMs of the invention produce self-induced agonism and positive allosteric modulation of the orthosteric, agonist-induced activation of the alpha-7 nAChR. The ability of these compounds to increase the maximal channel influx and to enhance the activity of the receptor on its own as well as in presence of choline is denoted by Imax and EC50 respectively. The details of cDNA clones and RNA for injection was as published. Thakur et. al. 2013, J. Med. Chem. 2013 Nov. 14; 56(21):8943-7. doi: 10.1021/jm401267t). For experiments involving PAM and ago-PAM analogs, where standard levels of expression result in ion currents too large to be recorded in voltage clamp, experiments were typically conducted 1-3 days after RNA injection.
Two-electrode voltage clamp was conducted using OpusXpress 6000A (Molecular Devices, Union City, Calif.). Both the voltage and current electrodes were filled with 3 M KCl. Oocytes were voltage-clamped at −60 mV except when determining the effect of voltage on channel activation. The oocytes were bath-perfused with Ringer's solution (115 mM NaCl, 2.5 mM KCl, 1.8 mM CaCl2, 10 mM HEPES, and 1 μM atropine, pH 7.2) with a flow rate of 2 mL/min. To evaluate the effects of experimental compounds on ACh-evoked responses of alpha-7 nAChRs expressed in oocytes, the initial control responses were measured with two applications of ACh alone, before applications of experimental drugs alone or co-applications with ACh. The agonist solutions were applied from a 96-well plate via disposable tips, and the drugs were either co-applied with ACh by the OpusXpress pipette delivery system or bath-applied using the OpusXpress system to switch the running buffer. Drug applications were for 12 s followed by a 181 s washout period and usually alternated between controls and test solutions. After experimental drug applications, follow-up control applications of ACh were made to determine primed potentiation, desensitization or rundown of the receptors. Data were collected at 50 Hz, filtered at 20 Hz, analyzed by Clampfit 9.2 (Molecular Devices) and Excel (Microsoft, Redmond Wash.), and normalized to the averaged current of the two initial control responses. Data were expressed as mean±SEM from at least four oocytes for each experiment. For the concentration-response relationships, responses were normalized to the net charge of the most adjacent prior control.
A detailed comparative activity profile of select ago-PAMs/PAMs based on the structure of 4BP-TQS was obtained. […] They also functioned as direct PAMs, producing responses when co-applied with ACh. However, the primed potentiation of response to ACh alone was less after direct potentiation than after direct activation, due to residual induction of PAM-insensitive desensitization.

CCI mice = assay: Chronic constriction injury (CCI) model, mechanical allodynia (von Frey); format: in vivo, mouse; conditions: for threshold for pain in the CCI model: dose of 1 mg/kg, FIG. 5B
Experimental: Mice were anesthetized with pentobarbital (45 mg/kg, i.p.). An incision was made just below the hipbone, parallel to the sciatic nerve. The right common sciatic nerve was exposed at the level proximal to the sciatic trifurcation, and a nerve segment 3-5 mm long was separated from surrounding connective tissue. Two loose ligatures with 6-0 silk suture were made around the nerve with a 1.0-1.5 mm interval between them. Muscles were closed with suture thread and the wound with wound clips. […] Any suture that remained after two weeks was removed from the healed surgical wound. Mechanical allodynia (von Frey test) was measured before and after drug injections.
The antiallodynic effects of test compounds were assessed in three experiments consisting of CCI mice and sham control mice. […] The anti-allodynic effects of alpha-7 nAChRs PAMs and ago-PAMs were tested (four doses and vehicle control, N=10 mice/group, administered i.p.) in the CCI model. Mice were assessed for mechanical allodynia 2 weeks after the CCI surgery. All these studies will be conducted in blinded manner. CCI and sham control mice received two conditioning sessions per day (vehicle in the morning and drug in the afternoon) over the course of 3 days, and were tested for a place preference on day 7 without any injections.
Pain behavioral data are presented as mean±S.E.M. (see FIGS. 5A and 5B). Statistical analysis was performed using the t-test or two-way analysis of variance test, followed by the post-hoc Bonferroni's test. All differences were considered significant at p<0.05, and significant differences are shown with asterisks in FIGS. 5A and 5B. ED50 values with 95% confidence limits (CL) were calculated by unweighted least-squares linear regression.

Solubility comparison = format: physicochemical

alpha-7 nAChRs, sequence (P36544 23-502): as above

| SMILES | Charge Alone (human alpha-7 nAChR [1]) | Charge +C (human alpha-7 nAChR [1]) | further results |
| --- | --- | --- | --- |
| NS(=O)(=O)c1ccc2c(c1)C1C=CCC1C(c1ccc(Br)cc1)N2 (racemic) [Compound 4BP-TQS, 4-(4-bromophenyl)-3a,4,5,9b-tetrahydro-3H-cyclopenta[c]quinoline-8-sulfonamide] | – | – | maximal response larger than ACh (alpha-7 nAChRs; agonist efficacy relative to ACh): 45 fold; EC50 lower than ACh (alpha-7 nAChRs; agonist potency relative to ACh): 8 fold |
| CC(C)(C)CC(=O)Nc1ccc([C@H]2Nc3ccc(S(N)(=O)=O)cc3[C@H]3C=CC[C@H]32)cc1 (stereo in doubt) [Compound 64, 3,3-dimethyl-N-(4-(8-sulfamoyl-3a,4,5,9b-tetrahydro-3H-cyclopenta[c]quinolin-4-yl)phenyl)butanamide] | 597 | 652 | effectiveness as ago-PAM compared to GAT154 (human alpha-7 nAChR [2]): almost equally effective as ago-PAMs; effectiveness as allosteric agonist compared to GAT154 (human alpha-7 nAChR [2]): more effective as allosteric agonists |
| CC(C)(C)NC(=O)Oc1ccc([C@H]2Nc3ccc(S(N)(=O)=O)cc3[C@H]3C=CC[C@H]32)cc1 (stereo in doubt) [Compound 65, 4-(8-sulfamoyl-3a,4,5,9b-tetrahydro-3H-cyclopenta[c]quinolin-4-yl)phenyl tert-butylcarbamate] | 332 | 740 | effectiveness as ago-PAM compared to GAT154 (human alpha-7 nAChR [2]): almost equally effective as ago-PAMs; effectiveness as allosteric agonist compared to GAT154 (human alpha-7 nAChR [2]): more effective as allosteric agonists |
| CC(C)(C)OC(=O)Nc1ccc([C@H]2Nc3ccc(S(N)(=O)=O)cc3[C@H]3C=CC[C@H]32)cc1 [Compound 24] | 212 | 580 | 'ago' component / ago-PAM activity (human alpha-7 nAChR [1]; in words): increased ‘ago’ component; types of activity (direct activation, direct potentiation, primed potentiation) (human alpha-7 nAChR [2]): exhibited all three types of activities |
| O=S(=O)(c1ccc2c(c1)[C@@H]1C=CC[C@@H]1[C@H](c1ccc(Br)cc1)N2)N1CCCC1 [Compound 56, (3aS,4R,9bR)-4-(4-bromophenyl)-8-(pyrrolidin-1-ylsulfonyl)-3a,4,5,9b-tetrahydro-3H-cyclopenta[c]quinolone] | Inactive | Inactive | – |
| O=S(=O)(c1ccc2c(c1)[C@H]1C=CC[C@H]1[C@@H](c1ccc(Br)cc1)N2)N1CCCC1 [Compound 57, (3aR,4S,9bS)-4-(4-bromophenyl)-8-(pyrrolidin-1-ylsulfonyl)-3a,4,5,9b-tetrahydro-3H-cyclopenta[c]quinolone] | Inactive | Inactive | – |
| O=S(=O)(NC1CCC1)c1ccc2c(c1)[C@H]1C=CC[C@H]1[C@@H](c1ccc(Br)cc1)N2 [Compound 104, 4-(4-bromophenyl)-N-cyclobutyl-3a,4,5,9b-tetrahydro-3H-cyclopenta[c]quinoline-8-sulfonamide] | Inactive | Inactive | – |
| CCNS(=O)(=O)c1ccc2c(c1)[C@@H]1C=CC[C@@H]1[C@@H](c1ccc(Br)cc1)N2 [Compound 113] | Inactive | Inactive | – |
| CCNS(=O)(=O)c1ccc2c(c1)[C@H]1C=CC[C@H]1[C@@H](c1ccc(Br)cc1)N2 [Compound 114] | Inactive | Inactive | – |

More lines, main results first:

| Charge Alone (human alpha-7 nAChR [1]) | Charge +C (human alpha-7 nAChR [1]) | SMILES | further results |
| --- | --- | --- | --- |
| 48 | 1145 | NS(=O)(=O)c1ccc2c(c1)[C@H]1C=CC[C@H]1[C@@H](c1ccc(Br)s1)N2 (stereo in doubt) [Compound 36, 4-(5-bromothiophen-2-yl)-3a,4,5,9b-tetrahydro-3H-cyclopenta[c]quinoline-8-sulfonamide] | direct activation when applied alone (human alpha-7 nAChR [2]): directly activated human alpha-7 nAChR; primed potentiation of subsequent responses to ACh applied alone (human alpha-7 nAChR [2]): large primed potentiation; peak efficacy in the presence of ACh (human alpha-7 nAChR [2]): almost equal peak efficacy; reversal of CCI effect (CCI mice; 1 mg/kg): completely reversed the effect; threshold for pain in the CCI model (CCI mice): effective in increasing the threshold for pain; effectiveness relative to GAT155 in the CCI model (CCI mice; same dose of 1 mg/kg): twice as effective at every time point; effect on sham mice (CCI mice; sham control mice): without showing any significant effect on the sham mice; solubility compared to GAT107 (Solubility comparison): significantly better solubility compared to GAT107 |
| 0 | 163 | NS(=O)(=O)c1ccc2c(c1)[C@H]1C=CC[C@H]1[C@@H](c1cc(Br)cs1)N2 (stereo in doubt) [Compound 37, 4-(4-bromothiophen-2-yl)-3a,4,5,9b-tetrahydro-3H-cyclopenta[c]quinoline-8-sulfonamide] | direct activation when applied alone (human alpha-7 nAChR [2]): negligible direct activation; primed potentiation of subsequent responses to ACh applied alone (human alpha-7 nAChR [2]): large primed potentiation; peak efficacy in the presence of ACh (human alpha-7 nAChR [2]): almost equal peak efficacy; threshold for pain in the CCI model (CCI mice): effective in increasing the threshold for pain; solubility compared to GAT107 (Solubility comparison): significantly better solubility compared to GAT107 |
| Inactive | Inactive | NS(=O)(=O)c1ccc2c(c1)C1C=CCC1C(c1ccc(C(=O)O)cc1)N2 (stereo not drawn) [Compound 58, 4-(8-sulfamoyl-3a,4,5,9b-tetrahydro-3H-cyclopenta[c]quinolin-4-yl)benzoic acid] | – |
| – | 480 | COC(=O)Nc1ccc([C@H]2Nc3ccc(S(N)(=O)=O)cc3[C@H]3C=CC[C@H]32)cc1 [Compound 59, methyl(4-(8-sulfamoyl-3a,4,5,9b-tetrahydro-3H-cyclopenta[c]quinolin-4-yl)phenyl)carbamate] | – |
| – | 100 | NS(=O)(=O)c1ccc2c(c1)[C@H]1C=CC[C@H]1[C@@H](c1cc(Br)sc1Br)N2 [Compound 67, (3aR,4S,9bS)-4-(2,5-dibromothiophen-3-yl)-3a,4,5,9b-tetrahydro-3H-cyclopenta[c]quinoline-8-sulfonamide] | – |
| 1 | 284 | NS(=O)(=O)c1ccc2c(c1)[C@H]1C=CC[C@H]1[C@@H](c1ccc(CCCBr)cc1)N2 [Compound 71, 4-(4-(3-bromopropyl)phenyl)-3a,4,5,9b-tetrahydro-3H-cyclopenta[c]quinoline-8-sulfonamide] | – |
| 29 | 348 | NS(=O)(=O)c1ccc2c(c1)[C@H]1C=CC[C@H]1[C@@H](c1ccc(Br)nc1)N2 [Compound 94, 4-(6-bromopyridin-3-yl)-3a,4,5,9b-tetrahydro-3H-cyclopenta[c]quinoline-8-sulfonamide] | – |
| Inactive | Inactive | CS(=O)(=O)c1ccc2c(c1)[C@H]1C=CC[C@H]1[C@@H](c1ccc(Br)cc1)N2 [Compound 117, 4-(4-bromophenyl)-8-(methylsulfonyl)-3a,4,5,9b-tetrahydro-3H-cyclopenta[c]quinolone] | – |
